As usually defined, the inhibition is the drop in the measured response relative to a control, in per cent. A word on the IC50: it is the midpoint of a concentration-inhibition curve. Low values mean greater potency, high ones weaker potency.

Molecules are shown by their SMILES.

Common to all, as to type: biochemical
One assay has as its target T1, MMP-2 (Homo sapiens, UniProt P08253).
T1 sequence (P08253 110-660): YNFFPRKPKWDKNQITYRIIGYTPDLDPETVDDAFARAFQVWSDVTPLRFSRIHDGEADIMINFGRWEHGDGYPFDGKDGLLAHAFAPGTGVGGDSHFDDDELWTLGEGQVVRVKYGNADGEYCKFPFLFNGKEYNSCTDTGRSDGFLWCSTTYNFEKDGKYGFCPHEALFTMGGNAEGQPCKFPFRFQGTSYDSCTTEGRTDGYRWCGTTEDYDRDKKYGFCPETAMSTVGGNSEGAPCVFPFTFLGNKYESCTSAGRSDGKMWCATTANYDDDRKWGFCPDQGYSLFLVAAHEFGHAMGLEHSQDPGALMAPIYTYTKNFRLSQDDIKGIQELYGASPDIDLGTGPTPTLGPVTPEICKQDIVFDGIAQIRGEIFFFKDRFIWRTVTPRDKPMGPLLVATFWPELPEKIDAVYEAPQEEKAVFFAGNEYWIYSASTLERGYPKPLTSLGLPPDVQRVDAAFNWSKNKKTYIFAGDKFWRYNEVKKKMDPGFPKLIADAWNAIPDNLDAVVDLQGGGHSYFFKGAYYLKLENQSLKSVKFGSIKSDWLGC
The experiment in a line: MMP inhibition fluorimetric assay (pro-fluorescing peptide substrate), MMP-2. Here is the method: (§1) Inhibitory activities were determined by a fluorimetric assay, where a pro-fluorescing peptide was used as substrate of MMP, and the fluorogenic activity of its cleavage product was measured after co-incubation with test compounds.

For the next assay, the target named is MMP-9 (Homo sapiens, UniProt P14780). Description: MMP inhibition fluorimetric assay (pro-fluorescing peptide substrate), MMP-9. Here is the method:
as §1

A further assay deals with MMP-8 (Homo sapiens, UniProt P22894). Description: MMP inhibition fluorimetric assay (pro-fluorescing peptide substrate), MMP-8. The procedure:
as §1

Chain of MMP-8 (P22894 101-467, species assumed): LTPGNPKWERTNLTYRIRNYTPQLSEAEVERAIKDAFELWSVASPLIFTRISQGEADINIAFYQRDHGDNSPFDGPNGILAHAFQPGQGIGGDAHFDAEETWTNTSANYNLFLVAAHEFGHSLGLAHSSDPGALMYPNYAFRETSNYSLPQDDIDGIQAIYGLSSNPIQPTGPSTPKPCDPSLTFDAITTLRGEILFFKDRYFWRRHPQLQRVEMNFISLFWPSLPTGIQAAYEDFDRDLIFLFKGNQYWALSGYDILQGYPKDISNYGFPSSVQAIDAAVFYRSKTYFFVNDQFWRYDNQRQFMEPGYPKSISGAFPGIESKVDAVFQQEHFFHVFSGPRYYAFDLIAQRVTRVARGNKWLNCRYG
Chain of MMP-9 (P14780 94-707, species assumed): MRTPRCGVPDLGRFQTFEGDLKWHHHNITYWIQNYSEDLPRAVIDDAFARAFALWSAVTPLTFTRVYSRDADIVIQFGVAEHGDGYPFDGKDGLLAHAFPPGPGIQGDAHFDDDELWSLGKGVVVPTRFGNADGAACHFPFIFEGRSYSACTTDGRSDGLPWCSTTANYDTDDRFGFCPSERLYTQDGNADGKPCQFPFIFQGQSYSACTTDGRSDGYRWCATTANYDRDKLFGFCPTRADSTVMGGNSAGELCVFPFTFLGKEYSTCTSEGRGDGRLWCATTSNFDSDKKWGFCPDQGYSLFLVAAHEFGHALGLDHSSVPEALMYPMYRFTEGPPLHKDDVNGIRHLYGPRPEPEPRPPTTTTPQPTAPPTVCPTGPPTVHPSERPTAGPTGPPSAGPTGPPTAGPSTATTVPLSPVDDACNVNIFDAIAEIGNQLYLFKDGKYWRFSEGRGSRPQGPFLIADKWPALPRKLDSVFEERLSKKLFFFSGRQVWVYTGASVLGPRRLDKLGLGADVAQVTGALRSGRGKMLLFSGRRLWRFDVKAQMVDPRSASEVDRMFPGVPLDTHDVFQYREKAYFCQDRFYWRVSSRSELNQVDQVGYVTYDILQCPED

In the case of `O=C1NC(=O)C(O)(CC(=O)c2ccc([N+](=O)[O-])cc2)C(=O)N1` [compound 6], the inhibition at 100 µM stood at 0% at MMP-2 and 8% against MMP-9. 631 µM corresponded to half-maximal inhibition at MMP-8 (IC50).
As for `O=c1[nH]c(=O)c2cc(-c3ccccc3)nnc2[nH]1` [compound 1], the inhibition at 100 µM against MMP-2 is 0%; against MMP-9, 5%; on MMP-8 it was 0%.
For the compound `COc1ccc(C(=O)CC2(O)C(=O)NC(=O)NC2=O)cc1` [compound 5], the IC50 on MMP-2 was 21.4 µM; on MMP-9, 12.9 µM; against MMP-8, 6.76 µM.
In the same order, the values of `O=C1NC(=O)C(O)(CC(=O)c2ccc(-c3ccccc3)cc2)C(=O)N1` [BAR] are 0.182 µM, 0.513 µM and 0.263 µM.
In the case of `NC(=O)c1ccc(-c2ccc(C(=O)CC3(O)C(=O)NC(=O)NC3=O)cc2)cc1` [BAM], the IC50 against MMP-2 was 0.0871 µM; on MMP-9, 1.82 µM; on MMP-8, 0.589 µM. The “selectivity towards MMP-2, as compared to MMP-9” value at MMP-2 (MMP-2 vs MMP-9) is given as greater than 20.
As for `O=C1NC(=O)C(O)(CC(=O)c2ccc(C(F)(F)F)cc2)C(=O)N1` [compound 4], the IC50 against MMP-2 was 38.9 µM; at MMP-8, 8.13 µM. The compound also yielded an inhibition at 100 µM on MMP-9 of 51%.
On to `O=c1[nH]c(=O)c2cc(-c3ccc(C(F)(F)F)cc3)nnc2[nH]1` [compound 2], for which the inhibition at 100 µM came out at 12% on MMP-2, 27% at MMP-9 and 14% at MMP-8.
As for `O=C1NC(=O)C(O)(CC(=O)c2ccc(-c3cccc(Cl)c3)cc2)C(=O)N1` [BCL], the 50% inhibitory concentration (IC50) is 60.3 µM against MMP-2, 20 µM at MMP-9 and 4.47 µM at MMP-8.
In the case of `O=C1NC(=O)C(O)(CC(=O)c2ccccc2)C(=O)N1` [compound 3], 100 µM produced 0% inhibition at MMP-2. The 50% inhibitory concentration (IC50) is 44.7 µM against MMP-9 and 42.7 µM on MMP-8.

The values are drawn from article PMC3187794, “Insights into the Complex Formed by Matrix Metalloproteinase-2 and Alloxan Inhibitors: Molecular Dynamics Simulations and Free Energy Calculations” (PLoS ONE, 2011).
